In US20240358847A1, “TROP2 BINDERS AND CONJUGATES THEREOF” (MERCK SHARP & DOHME LLC, priority 2023, published 2024):

What was measured:
BxPC-3 cells = experiment: On-Cell ELISA binding, BxPC3 cells (TROP2 high); type: cell-based, human; parameters: AUC (BxPC-3): unit not given beside the values; details: for EC50: On-Cell ELISA, TROP2 high cells; for ΔAUC: AUC (BxPC-3) minus AUC (MDA-MB-231-KWL); for AUC (BxPC-3): area under On-Cell ELISA binding curve; for ΔAUC/AUC (BxPC-3): differential BxPC3 vs MDA-MB-231-KWL
Description: (§1) Cell lines expressing TROP2.
(§2) Cells were plated in duplicate onto 96-well plates, and primary antibody was diluted in cell culture medium with a starting concentration of 30 μg/mL (200 nM) with a dilution factor of 1:5. After 3× wash, secondary antibody was added for 1 hour at 1 ug/ml, washed three times and absorbance was measured at 450 nm. Data was plotted and analyzed. EC50 ([…]) was measured along with area under the curve (AUC) for each cell line.

MDA-MB-231-KWL cells = experiment: On-Cell ELISA binding, MDA-MB-231-KWL cells (TROP2 low); type: cell-based; parameters: AUC (MDA-MB-231-KWL): unit not given beside the values; details: for EC50: read-out: MDA-MB-231-KWL EC50, On-Cell ELISA, TROP2 low cells; for AUC (MDA-MB-231-KWL): area under On-Cell ELISA binding curve
Description: as §1, §2

Row | Substance | EC50 (BxPC-3 cells) [pM] | EC50 (MDA-MB-231-KWL cells) [pM] | other results
1 | mAb_LC_Hm_F101E: Sacituzumab HC F101E mutein, Sacituzumab LC | 482 | 2690 | 
2 | mAb_LC_Hm_F108T: Sacituzumab HC F108T mutein, Sacituzumab LC | 681 | 1200 | 
3 | mAb_LC_Hm_G33S: Sacituzumab HC G33S mutein, Sacituzumab LC | 2240 |  | 
4 | mAb_LC_Hm_S103T: Sacituzumab HC S103T mutein, Sacituzumab LC |  |  | ΔAUC (BxPC-3 cells): 171.04; AUC (BxPC-3) (BxPC-3 cells): 204.7; ΔAUC/AUC (BxPC-3) (BxPC-3 cells): 0.538; AUC (MDA-MB-231-KWL) (MDA-MB-231-KWL cells): 33.66
5 | mAb_LC_Hm_W106A: Sacituzumab HC W106A mutein, Sacituzumab LC | 1680 |  | 
6 | mAb_LC_Hm_W106H: Sacituzumab HC W106H mutein, Sacituzumab LC | 1160 |  | ΔAUC (BxPC-3 cells): 192.47; AUC (BxPC-3) (BxPC-3 cells): 215.2; ΔAUC/AUC (BxPC-3) (BxPC-3 cells): 0.605; AUC (MDA-MB-231-KWL) (MDA-MB-231-KWL cells): 22.73
7 | mAb_LC_Hm_Y107N: Sacituzumab HC Y107N mutein, Sacituzumab LC | 715 | 1880 | 
8 | mAb_Lm_A32P_HC: Sacituzumab LC A32P mutein, Sacituzumab HC | 922 |  | 
9 | mAb_Lm_A32Q_HC: Sacituzumab LC A32Q mutein, Sacituzumab HC | 18400 |  | 
10 | mAb_Lm_H91K_HC: Sacituzumab LC H91K mutein, Sacituzumab HC | 899 | 1960 | 
11 | mAb_Lm_H91Y_HC: Sacituzumab LC H91Y mutein, Sacituzumab HC | 3560 |  | 
12 | mAb_Lm_Q89V_HC: Sacituzumab LC Q89V mutein, Sacituzumab HC | 1680 | 8460 | 
13 | mAb_Lm_S30R_HC: Sacituzumab LC S30R mutein, Sacituzumab HC | 697 |  | 
14 | mAb_Lm_S50L_HC: Sacituzumab LC S50L mutein, Sacituzumab HC | 23800 |  | 
15 | mAb_Lm_Y92A_HC: Sacituzumab LC Y92A mutein, Sacituzumab HC | 9200 |  | 
16 | mAb_Lm_Y92E_HC: Sacituzumab LC Y92E mutein, Sacituzumab HC | 6940 |  | 
17 | mAb_Lm_Y92N_HC: Sacituzumab LC Y92N mutein, Sacituzumab HC | 839 |  | 

Now from value to substance, other results behind:

Row | EC50 (BxPC-3 cells) [pM] | EC50 (MDA-MB-231-KWL cells) [pM] | Substance | other results
18 | 320 | 448 | mAb_LC_Hm_F29G: Sacituzumab HC F29G mutein, Sacituzumab LC | 
19 | 336 | 871 | mAb_LC_Hm_F101T: Sacituzumab HC F101T mutein, Sacituzumab LC | 
20 | 316 | 365 | mAb_LC_Hm_F108Q: Sacituzumab HC F108Q mutein, Sacituzumab LC | 
21 | 321 | 651 | mAb_LC_Hm_F108S: Sacituzumab HC F108S mutein, Sacituzumab LC | 
22 | 217 | 768 | mAb_LC_Hm_G33I: Sacituzumab HC G33I mutein, Sacituzumab LC | 
23 | 369 | 1160 | mAb_LC_Hm_N31P: Sacituzumab HC N31P mutein, Sacituzumab LC | 
24 | 214 |  | mAb_LC_Hm_S104D: Sacituzumab HC S104D mutein, Sacituzumab LC | 
25 | 326 |  | mAb_LC_Hm_W106L: Sacituzumab HC W106L mutein, Sacituzumab LC | 
26 | 416 | 1580 | mAb_LC_Hm_Y32E: Sacituzumab HC Y32E mutein, Sacituzumab LC | 
27 | 312 |  | mAb_LC_Hm_Y105S: Sacituzumab HC Y105S mutein, Sacituzumab LC | 
28 | 159 | 136 | mAb_Lm_D28H_HC: Sacituzumab LC D28H mutein, Sacituzumab HC | 
29 | 182 | 221 | mAb_Lm_I93G_HC: Sacituzumab LC I93G mutein, Sacituzumab HC | 
30 | 222 | 568 | mAb_Lm_S50T_HC: Sacituzumab LC S50T mutein, Sacituzumab HC | 
31 | 233 | 374 | mAb_Lm_T94F_HC: Sacituzumab LC T94F mutein, Sacituzumab HC | 
32 | 285 |  | mAb_Lm_V29R_HC: Sacituzumab LC V29R mutein, Sacituzumab HC | 
33 | 238 | 4890 | mAb_Lm_Y53D_HC: Sacituzumab LC Y53D mutein, Sacituzumab HC; HC SEQ ID NO: 11, LC SEQ ID NO: 13 | 
34 | 225 | 843 | mAb_Lm_Y53N_HC: Sacituzumab LC Y53N mutein, Sacituzumab HC | 
35 | 218 | 629 | mAb_Lm_Y53P_HC: Sacituzumab LC Y53P mutein, Sacituzumab HC | 
36 | 357 | 546 | mAb_Lm_Y53R_HC: Sacituzumab LC Y53R mutein, Sacituzumab HC | 
37 | 280 | 304 | mAb_Lm_Y53S_HC: Sacituzumab LC Y53S mutein, Sacituzumab HC | 
38 | 225 | 343 | mAb_Lm_Y53V_HC: Sacituzumab LC Y53V mutein, Sacituzumab HC | 
